The values below are quoted from earlier work in patent US6107342A, “2-amino-bicyclo[3.1.0]hexane-2,6-dicarboxylic acid derivatives and a process for the preparation thereof” (Hoffmann-La Roche Inc., priority 1998, dated 2000).

Series [1] addresses group II metabotropic glutamate receptor. The settings on record: antagonism of inhibition by LY354740; Mol. Pharmacology, Vol.53, 228-233 (1998).
The target of series [2] is mGluR3. The settings on record: Mol. Pharmacology, Vol.53, 228-233 (1998).
Series [3] concerns the target mGluR2. The settings on record: Mol. Pharmacology, Vol.53, 228-233 (1998).

In the case of `N[C@]1(C(=O)O)[C@H]2[C@@H](C[C@H]1O)[C@@H]2C(=O)O` [I-A, (1S,2R,3R,5R,6S)-2-amino-3-hydroxy-bicyclo [3.1.0]hexane-2,6-dicarboxylic acid], the pKB in series [1] was 6.0. Moreover, the results for the Ki in series [2] and in series [3] were 89 nM and 52 nM, respectively.
